# Assay results from patent US9908826B2, “Synthetic method” (University Court of the University of St. Andrews, priority 2014, dated 2018).
# How the values were obtained:
# human oestrogen receptor [1] = target: T1, human oestrogen receptor (Homo sapiens, UniProt P03372); test: recombinant yeast oestrogen screen (YES) assay; assay type: cell-based
# T1 construct: expressed in transfected cells; host or cells: recombinant yeast (hER yeast strain developed by Glaxo Welcome)
# T1 sequence (P03372 1-595): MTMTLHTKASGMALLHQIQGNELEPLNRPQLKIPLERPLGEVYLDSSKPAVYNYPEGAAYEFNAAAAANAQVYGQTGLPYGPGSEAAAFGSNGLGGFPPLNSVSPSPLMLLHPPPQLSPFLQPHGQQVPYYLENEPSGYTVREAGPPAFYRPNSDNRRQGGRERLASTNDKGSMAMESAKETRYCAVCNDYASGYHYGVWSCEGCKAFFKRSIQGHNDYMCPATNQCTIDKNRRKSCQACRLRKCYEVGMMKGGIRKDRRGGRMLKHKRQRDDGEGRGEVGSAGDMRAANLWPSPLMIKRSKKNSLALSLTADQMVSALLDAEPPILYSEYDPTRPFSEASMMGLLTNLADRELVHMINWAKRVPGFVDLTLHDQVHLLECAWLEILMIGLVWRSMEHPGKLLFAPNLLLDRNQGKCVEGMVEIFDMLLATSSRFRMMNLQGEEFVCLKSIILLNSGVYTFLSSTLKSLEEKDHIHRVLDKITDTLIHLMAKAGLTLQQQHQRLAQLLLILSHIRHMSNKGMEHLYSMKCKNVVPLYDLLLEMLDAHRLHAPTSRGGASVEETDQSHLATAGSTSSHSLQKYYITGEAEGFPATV
# Excerpt: In order to test our hypothesis that 3-nonylphenol might show less oestrogenicity than either the linear or the 4-nonylphenol, we have carried out a yeast oestrogen screen (YES) assay which is specific for oestradiol mimics.
# The recombinant hER yeast strain was developed by Glaxo Welcome and details of the yeast oestrogen screen have been described previously (Routledge and Sumpter, 1996).
# In brief, yeast cells were transfected with the human oestrogen receptor gene together with expression plasmids; the oestrogen response element and the lac-Z gene encoding the enzyme β-galactosidase. The yeast cells were incubated in medium containing the test chemical and the chromogenic substrate, […] (CPRG), and active ligands induced β-gal expression. The β-galactosidase secreted into the medium causes the yellow CPGR to change into a red product, and this is measurable by absorbance.
# The medium components were prepared and the standard assay procedure was followed.^32 Chemicals were serially diluted in ethanol and 10 μl volumes were transferred to 96-well flat-bottom plates where the ethanol was allowed to evaporate to dryness. Then, 200 μl medium containing CPRG and yeast (final cell number of 5×10^5 cells/ml) was added to each well. Included with every assay was a negative control, ethanol, and a positive control, 17 β-oestradiol (stock solution of 17 β-oestradiol (2×10^−7 mol dm^−3) serially diluted in ethanol to achieve final concentrations of 1×10^−8 mol dm^−3 to 4.88×10^−12 mol dm^−3 in the wells).
# The absorbance values were corrected for cell density using the following equation: Corrected value=chemical540nm−(chemical620nm−ethanol blank620nm).
# All chemicals were tested in duplicate and each YES was carried out at least three times.
# [2] = system: male Japanese Medaka fish; details: post-hatching stages of development, references 12, 13, 28; cited from earlier work
# human oestrogen receptor [3] = target: T1, human oestrogen receptor; details: studied before, reference 13; cited from earlier work
# [4] = YES assay, initial 3-NP sample (Pd/C, contains small amounts of ring hydrogenated product)
# [5] = second sample, [RhCl(PPh3)3] hydrogenation, no ring hydrogenation products
smiles,measurement,setting,value
"CCCCCCCCCc1cccc(O)c1 [3-NP, 3-Nonylphenol]",oestrogenicity relative to 17 β-oestradiol (times as oestrogenic),human oestrogen receptor [1]; YES assay (conclusion),~10^−6 times
same,oestrogenic response in the YES assay (in words),"human oestrogen receptor [1]; YES assay, FIG. 1 and FIG. 2",full dose response curve
same,times less potent in oestrogenicity than the banned substance (4-nonylphenol),"human oestrogen receptor [1]; YES assay, 3-nonylphenol prepared by ethenolysis of cardanol (conclusion)",at least 150 times
same,"potency, fold less than 4-NP (mixed isomers)",human oestrogen receptor [1]; [4],~300 fold
same,"potency, fold less than 17 β-oestradiol",human oestrogen receptor [1]; [4],approximately 1.5×10^6 fold
same,reduction in oestrogenic activity on moving the linear alkyl group from the 4- to the 3-position (vs 4-n-NP),"human oestrogen receptor [1]; YES assay, tested 1×10^−3 to 5×10^−7 mol dm^−3, initial sample (Pd/C hydrogenation)",10 fold
same,orders of magnitude less oestrogenic than 4-nonylphenol,"human oestrogen receptor [1]; oestrogenicity studies, summary statement",2 orders of magnitude
same,increase in oestrogenicity of second sample versus initial sample,human oestrogen receptor [1]; [5],2 fold
same,"oestrogenicity, times lower than that of 4-NP mixed isomers",human oestrogen receptor [1]; [5],150 times
"CCCCCCCCCc1ccc(O)cc1 [4-NP, 4-nonylphenol]",endocrine disrupting effect,[2],induce testes-ova
"CCCCCCCCCc1ccc(O)cc1 [4-n-NP, 4-nonylphenol]",oestrogenicity compared with commercial 4-nonylphenol with mixed alkyl chains,human oestrogen receptor [3],lower oestrogenicity
